Measurements from patent US8802597B2, “Herbicidal pyrimidines” (E I du Pont de Nemours and Company, priority 2003, dated 2014).

Legend:
Format in all cases: in vivo
[1] = system: Russian thistle (Salsola kali); assay: Test G pre/postemergence
In short: (§1)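 Greenhouse pre/postemergence screen with surfactant-containing solvent formulation; postemergence plants were 1- to 4-leaf stage. Percent control (0–100) was judged by eye against controls after 12–21 days.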

[2] = system: common sowthistle (Sonchus oleraceous); assay: Test G pre/postemergence
In short: as §1

[3] = system: purple nutsedge (Cyperus rotundus); assay: Test G pre/postemergence
In short: as §1

[4] = system: grape (Vitus vinifera) vines; assay: Test G post-directed application; conditions: 1500 g ai/ha, scale 0 to 100
Method: (§2) At a different time, established container-grown grape (Vitus vinifera) vines, and olive (Olea europaea) and orange (Citrus sinensis) trees were treated with some of the test chemicals formulated in the same manner and applied to the soil surface and the lower 5 cm of the plant vines or trunks (post-directed application). Plants ranged in height from 30 to 100 cm. The applications were made using a hand sprayer delivering a volume of 990 L/ha. Treated plants and controls were maintained in a greenhouse for 28 days, after which time the treated plants were compared to controls and visually evaluated.
(§3) Plant response ratings, summarized in Table G, are based on a scale of 0 to 100 where 0 is no effect and 100 is complete control. A dash (-) response means no test result.

[5] = system: olive (Olea europaea) trees; assay: Test G post-directed application; conditions: 1500 g ai/ha, scale 0 to 100
Method: as §2, §3

[6] = system: orange (Citrus sinensis) trees; assay: Test G post-directed application; conditions: 1500 g ai/ha, scale 0 to 100
Method: as §2, §3

[7] = system: sugarcane (Saccharum officinarum); assay: Test G sugarcane pre/postemergence
Text: Also at a different time, seed pieces (nodes) of sugarcane (Saccharum officinarum) were planted and treated preemergence and/or postemergence with some of the test chemicals formulated in the same manner. Treated plants and controls were maintained in a greenhouse for 14 days, after which time the treated plants were compared to controls and visually evaluated.
as §3

[8] = system: sulfonylurea herbicide-resistant (SU-resistant) catchweed bedstraw (GALAP; Galium aparine); assay: Test K postemergence; conditions: 15 days
Method: (§4) Seeds of plant species selected from sulfonylurea herbicide-susceptible (SU-susceptible) and sulfonylurea herbicide-resistant (SU-resistant) catchweed bedstraw (GALAP; Galium aparine) and wheat (TRZAW; Triticum aestivum) were treated with postemergence applications of test chemicals formulated in a non-phytotoxic solvent mixture which included a surfactant. Plants were treated at the 2-3 leaf stage and 2 whorl stage for wheat and catchweed bedstraw, respectively. Treated plants and controls were maintained in a controlled growth environment for 15 days after which time all species were compared to controls and visually evaluated. Plant response ratings, summarized in Table K, are based on a scale of 0 to 100 where 0 is no effect and 100 is complete control. A dash (-) response means no test result.

[9] = system: sulfonylurea herbicide-susceptible (SU-susceptible) catchweed bedstraw (GALAP; Galium aparine); assay: Test K postemergence; conditions: 15 days
Method: as §4

[10] = system: wheat (TRZAW; Triticum aestivum); assay: Test K postemergence; conditions: 15 days
Method: as §4

[11] = Postemergence, 250 g ai/ha, scale 0 to 100
[12] = Postemergence, 62 g ai/ha, scale 0 to 100
[13] = Postemergence, 125 g ai/ha, scale 0 to 100
[14] = Postemergence, 375 g ai/ha, scale 0 to 100
[15] = Preemergence, 62 g ai/ha, scale 0-100
[16] = Preemergence, 125 g ai/ha, scale 0-100
[17] = Preemergence, 250 g ai/ha, scale 0-100
[18] = Preemergence, 500 g ai/ha, scale 0-100
[19] = Preemergence, 500 g ai/ha, scale 0 to 100
[20] = Postemergence, 500 g ai/ha, scale 0 to 100

CCOC(=O)c1nc(C2CC2)nc(N)c1Br [Compound 1, ethyl 6-amino-5-bromo-2-cyclopropyl-4-pyrimidinecarboxylate]
50: Plant response rating, Olive [5] | Plant response rating, Orange [6]
95: Plant response rating, Sowthistle [2, 11] | Plant response rating, Sowthistle [2, 12] | Plant response rating, Sowthistle [2, 13] | Plant response rating, Sowthistle [2, 14] | Plant response rating, Sowthistle [2, 15]
0: Plant response rating, Sugarcane ([7]; Postemergence, 31 g ai/ha, scale 0 to 100) | Plant response rating, Sugarcane [7, 12] | Plant response rating, Sugarcane [7, 15] | Plant response rating, Sugarcane [7, 16] | Plant response rating, Sugarcane [7, 17] | Plant response rating, Sugarcane ([7]; Preemergence, 375 g ai/ha, scale 0-100) | Plant response rating (0 to 100 scale) ([10]; 4 g a.i./ha) | Plant response rating (0 to 100 scale) ([10]; 8 g a.i./ha) | Plant response rating (0 to 100 scale) ([10]; 16 g a.i./ha)
10: Plant response rating, Nutsedge, Purple [3, 13] | Plant response rating, Nutsedge, Purple [3, 15]
63: Plant response rating (0 to 100 scale) ([9]; 4 g a.i./ha)
100: Plant response rating, Russian Thistle [1, 11] | Plant response rating, Russian Thistle [1, 12] | Plant response rating, Russian Thistle [1, 13] | Plant response rating, Russian Thistle [1, 14] | Plant response rating, Russian Thistle [1, 15] | Plant response rating, Russian Thistle [1, 16] | Plant response rating, Russian Thistle [1, 17] | Plant response rating, Russian Thistle [1, 18] | Plant response rating, Russian Thistle [1, 19] | Plant response rating, Sowthistle [2, 20] | Plant response rating, Sowthistle [2, 16] | Plant response rating, Sowthistle [2, 17] | Plant response rating, Sowthistle [2, 18] | Plant response rating, Sowthistle [2, 19] | Plant response rating, Nutsedge, Purple [3, 16] | Plant response rating, Nutsedge, Purple [3, 17] | Plant response rating, Nutsedge, Purple [3, 18] | Plant response rating, Nutsedge, Purple [3, 19] | Plant response rating, Grape [4] | Plant response rating (0 to 100 scale) ([8]; 4 g a.i./ha) | Plant response rating (0 to 100 scale) ([8]; 8 g a.i./ha) | Plant response rating (0 to 100 scale) ([8]; 16 g a.i./ha) | Plant response rating (0 to 100 scale) ([8]; 31 g a.i./ha) | Plant response rating (0 to 100 scale) ([8]; 62 g a.i./ha) | Plant response rating (0 to 100 scale) ([8]; 125 g a.i./ha) | Plant response rating (0 to 100 scale) ([9]; 62 g a.i./ha) | Plant response rating (0 to 100 scale) ([9]; 125 g a.i./ha)
38: Plant response rating, Sugarcane [7, 20] | Plant response rating (0 to 100 scale) ([10]; 125 g a.i./ha)
98: Plant response rating (0 to 100 scale) ([9]; 16 g a.i./ha) | Plant response rating (0 to 100 scale) ([9]; 31 g a.i./ha)
30: Plant response rating, Nutsedge, Purple [3, 20] | Plant response rating, Nutsedge, Purple [3, 14] | Plant response rating (0 to 100 scale) ([10]; 62 g a.i./ha)
20: Plant response rating, Nutsedge, Purple [3, 11]
25: Plant response rating (0 to 100 scale) ([10]; 31 g a.i./ha)
80: Plant response rating (0 to 100 scale) ([9]; 8 g a.i./ha)
13: Plant response rating, Sugarcane [7, 11]
3: Plant response rating, Sugarcane [7, 13]
